Assay results as given in article PMC2976784 (Proteins, 2010).

molecular target: T1, YndB (Bacillus subtilis, UniProt O31806); assay: 2D 1H-15N HSQC NMR titration, chemical shift perturbation fit; format: binding
T1 sequence (O31806 1-144): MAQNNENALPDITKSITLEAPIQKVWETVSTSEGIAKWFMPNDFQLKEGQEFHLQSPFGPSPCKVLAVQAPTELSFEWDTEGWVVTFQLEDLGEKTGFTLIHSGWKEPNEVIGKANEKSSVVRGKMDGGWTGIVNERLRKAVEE

Kd [µM] | Structure (SMILES)
62 ± 9 | O=c1cc(-c2ccccc2)oc2ccccc12 [flavone]
< 1 | O=C(/C=C/c1ccccc1)c1ccccc1 [trans-chalcone]
86 ± 16 | O=c1c(O)c(-c2ccccc2)oc2ccccc12 [flavonol]
32 ± 3 | O=C1CC(c2ccccc2)Oc2ccccc21 (stereo not shown) [flavanone]
